Results published in patent US12378528B2, “Systems and methods for growth of intestinal cells in microfluidic devices” (EMULATE, INC., priority 2016, dated 2025).

How the values were obtained:
[1] = tested on: human intestinal epithelial cells derived from IPSCs; assay: Transepithelial electrical resistance (TEER) on microfluidic chip; assay type: cell-based; conditions: IFNgamma 10 ng/ml, basal administration, over time, n=4
Experimental: (§1) Intestinal epithelium, derived from iPSCs, is seeded onto the microfluidic device followed by characterization of intestinal epithelial subtypes. Functional assays, including an examination of permeability via transepithelial resistance and dextran FITC efflux will be assessed either under basal conditions or in response to inflammatory cytokines such as interferon-gamma (IFNg) and/or tumor necrosis factor-alpha (TNFalpha). Also drug candidates that may modulate the various intestinal epithelial subtypes will be examined to assess if such subtypes can indeed be modulated. After establishing such assays, IPSCs from genetically defined inflammatory bowel disease (IBD) patients will be generated, differentiated into intestinal organoids, disassociated and subsequently seeded onto the microfluidic devices and the functional consequences of the genetic variations associated with IBD will be assessed.
(§2) Human intestinal epithelial cells derived from IPSCs were treated with 10 ng/ml of IFNgamma. The basal administration of IFNg leads to a decrease in transepithelial resistance and an increase in the efflux of dextran FITC in human intestinal epithelial cells derived from IPSCs. Basically this means that the intestinal epithelium is more permeable in response to this cytokine.

[2] = tested on: human intestinal epithelial cells derived from IPSCs; assay: FITC dextran permeability on microfluidic chip; assay type: cell-based; conditions: for permeability co-efficient of FITC dextran added to the apical channel / efflux of dextran FITC / accumulation in the basal layer: IFNgamma 10 ng/ml; for efflux of dextran FITC / accumulation in the basal layer: dextran added to apical channel
Experimental: as §1, §2

[3] = tested on: STAT1 and IFNgamma responsive genes; assay: STAT1 phosphorylation and gene expression in iPSC-derived intestinal epithelium on microfluidic device; assay type: cell-based, human; conditions: administration to the lower channel
Experimental: In one embodiment, iPSCs were directed to form HIOs and were subsequently dissociated to a single cell suspension. These cells were then seeded into a small microfluidic device (SMD) which is composed of two chambers separated by a porous flexible membrane. See, FIG. 40.

Caco2 cells = assay: Gene expression in Caco2 cells treated with IFNgamma; assay type: cell-based, human
[4] = tested on: mitochondrial respiration in iFGEs; assay: Seahorse mitochondrial stress test in iFGEs; assay type: cell-based, human
Experimental: (§3) The Seahorse XF^e24 Extracellular Flux Analyzer (Seahorse Biosciences) was used to perform mitochondrial stress tests and obtain real-time measurements of oxygen consumption rate (OCR) in cells. iFGEs and iHTNS treated with or without EDCs were seeded in a 24-well Seahorse culture plate at a density of 10,000-15,000 cells/well. For analysis of OCR, cells were reconstituted in Seahorse base medium and were allowed to settle for 1 hour at 37° C. in non-CO2 incubator before measurements. Chemical reagents (Sigma) were used at final concentrations as follows: 1 μM Oligomycin—an ATP synthase inhibitor, 1 μM (FCCP) carbonyl cyanide 4-(trifluoromethoxy)phenylhydrazone—an uncoupling agent, and a mixture of 0.5 μM antimycin A—a cytochrome C reductase inhibitor and 0.5 μM rotenone—a complex I inhibitor. Results were normalized to protein concentration determined by BCA assay (Thermo Scientific).

[5] = tested on: mitochondrial respiration in iHTNs; assay: Seahorse mitochondrial stress test in iHTNs; assay type: cell-based, human
Experimental: as §3

Compound	transepithelial electrical resistance (TEER) [1]	permeability co-efficient of FITC dextran added to the apical channel [2]	efflux of dextran FITC / accumulation in the basal layer [2]	effect on mitochondrial spare respiratory capacity [4]	effect on mitochondrial spare respiratory capacity [5]	further results
IFNgamma: inflammatory cytokine interferon-gamma	loss of transepithelial electrical resistance	increase	increase			transepithelial electrical resistance (TEER) ([1]; listed as IFNg): decrease; efflux of dextran FITC / accumulation in the basal layer ([2]; listed as INFgamma): accumulation in the basal layer; expression of IFNgamma responsive genes IDO1, GBP4 and/or GBP5 [3]: significant upregulation; expression of phospholipase A2 group 2A and Muc4 [3]: also upregulated; phosphorylation of STAT1 [3]: phosphorylation of STAT1; expression of genes associated with intestinal epithelial subtypes (Caco2 cells): no corresponding upregulation
TNFalpha	increased TEER over time comparable to controls	comparable	comparable			intestinal permeability ([2]; addition of TNFa): does not elicit any change
O=C(O)C(F)(F)C(F)(F)C(F)(F)C(F)(F)C(F)(F)C(F)(F)C(F)(F)F [PFOA, Perfluorooctanoic acid]				did not show any effect	did not show any effect	
Cc1cc(C(C)(C)C)c(O)c(C(C)(C)C)c1 [BHT, Butylated hydroxytoluene]				significant decrease	significant impairment	
Tributyltin [TBT]					significant impairment	
